# Patent publication US11608318B2, “Solid state forms of Omecamtiv mecarbil and Omecamtiv mecarbil diHCl” (ASSIA CHEMICAL INDUSTRIES LTD., priority 2018, dated 2023)
# From the text: (§1) Pharmaceutical molecules may display solid to solid phase transformations and transformations between polymorphs; which may detected by exposure of the solid state form to stress conditions of e.g., high temperature and high relative humidity.
# as §1
substance,measurement,value
Malonic Omecamtiv mecarbil diHCl [form OCM-3],thermodynamic and mechanical stability of the solid state form (polymorphic conversion),thermodynamically and mechanically stable
